# Assay results: ChEMBL document CHEMBL5463725, “Data for DCP probe BAY-277” (2023)
# pKi: −log10 of the molar value.
# Experiments:
# [1] = target: Muscarinic acetylcholine receptor M3 (Homo sapiens, UniProt P20309); assay: GPCRScan assay: inhibition of M3; set-up: radioligand conc. used [nm] 0.3 – 1.0, parental cells stable CHO; settings: for pKi: read-out: Ki; for Ki: read-out: pKi (converted)
# [2] = target: Serine/threonine-protein kinase haspin (Homo sapiens) (UniProt Q8TF76); assay: Inhibition of Haspin(h) at 10.0 µM in the Eurofins Kinase panel; settings: Compound concentration 10.0 uM
# [3] = target: Tyrosine-protein kinase SYK (Homo sapiens) (UniProt P43405); assay: Inhibition of Syk(h) at 10.0 µM in the Eurofins Kinase panel; settings: Compound concentration 10.0 uM
# [4] = target: Serine/threonine-protein kinase pim-2 (Homo sapiens) (UniProt Q9P1W9); assay: Inhibition of Pim-2(h) at 10.0 µM in the Eurofins Kinase panel; settings: Compound concentration 10.0 uM
# [5] = target: Nitric oxide synthase, inducible (Homo sapiens) (UniProt P35228); assay: Inhibition of Nitric Oxide Synthetase, Inducible (iNOS) at 10.0 µM in the Eurofins Panlabs Safety Screen; settings: Mus musculus; Compound concentration 10.0 uM
# [6] = target: Alpha-1A adrenergic receptor (Rattus norvegicus) (UniProt P43140); assay: Inhibition of Adrenergic alpha1A at 10.0 µM in the Eurofins Panlabs Safety Screen; settings: Compound concentration 10.0 uM
# [7] = target: Beta-2 adrenergic receptor (Homo sapiens) (UniProt P07550); assay: Inhibition of Adrenergic beta2 at 10.0 µM in the Eurofins Panlabs Safety Screen; settings: Compound concentration 10.0 uM
# [8] = target: Type-1 angiotensin II receptor (Homo sapiens) (UniProt P30556); assay: Inhibition of Angiotensin AT1 at 10.0 µM in the Eurofins Panlabs Safety Screen; settings: Compound concentration 10.0 uM
# [9] = target: D(1A) dopamine receptor (Homo sapiens) (UniProt P21728); assay: Inhibition of Dopamine D1 at 10.0 µM in the Eurofins Panlabs Safety Screen; settings: Compound concentration 10.0 uM
# [10] = target: GABA-A receptor; anion channel (Rattus norvegicus) (UniProt O09028+P15431+P18506+P18508+P19969+P20236+P23574+P23576+P28471+P28473+P30191+P62813+P63079+P63138+Q91ZM7+Q9ES14); assay: Inhibition of GABAA, Flunitrazepam, Central at 10.0 µM in the Eurofins Panlabs Safety Screen; type: protein-complex assay; settings: Compound concentration 10.0 uM
# [11] = target: GABA B receptor (Rattus norvegicus) (UniProt Q9Z0U4+O88871); assay: Inhibition of GABAB, Non-Selective at 10.0 µM in the Eurofins Panlabs Safety Screen; type: protein-complex assay; settings: Compound concentration 10.0 uM
# [12] = target: Histamine H2 receptor (Homo sapiens) (UniProt P25021); assay: Inhibition of Histamine H2 at 10.0 µM in the Eurofins Panlabs Safety Screen; settings: Compound concentration 10.0 uM
# [13] = target: T1, Muscarinic acetylcholine receptor M2 (Homo sapiens) (UniProt P08172); assay: Inhibition of Muscarinic M2 at 10.0 µM in the Eurofins Panlabs Safety Screen; settings: Compound concentration 10.0 uM
# T1 sequence (whole entry): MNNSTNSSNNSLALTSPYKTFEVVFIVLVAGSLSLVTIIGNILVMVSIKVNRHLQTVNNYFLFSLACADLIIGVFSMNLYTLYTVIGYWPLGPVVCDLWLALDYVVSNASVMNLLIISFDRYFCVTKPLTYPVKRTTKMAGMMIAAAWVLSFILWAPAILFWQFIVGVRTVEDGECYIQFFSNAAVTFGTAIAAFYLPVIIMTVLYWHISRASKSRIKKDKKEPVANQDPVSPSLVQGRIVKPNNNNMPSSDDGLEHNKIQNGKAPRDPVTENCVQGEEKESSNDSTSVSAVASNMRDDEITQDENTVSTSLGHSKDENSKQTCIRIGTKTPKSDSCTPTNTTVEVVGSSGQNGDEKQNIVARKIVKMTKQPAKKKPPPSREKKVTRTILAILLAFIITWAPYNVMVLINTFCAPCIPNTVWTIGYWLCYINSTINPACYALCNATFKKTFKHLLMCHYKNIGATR
# [14] = target: 5-hydroxytryptamine receptor 2B (Homo sapiens) (UniProt P41595); assay: Inhibition of Serotonin (5-Hydroxytryptamine) 5-HT2B at 10.0 µM in the Eurofins Panlabs Safety Screen; settings: Compound concentration 10.0 uM
# [15] = target: T2, 5-hydroxytryptamine receptor 2C (Homo sapiens) (UniProt P28335); assay: Inhibition of Serotonin (5-Hydroxytryptamine) 5-HT2C at 10.0 µM in the Eurofins Panlabs Safety Screen; settings: Compound concentration 10.0 uM
# T2 sequence (whole entry): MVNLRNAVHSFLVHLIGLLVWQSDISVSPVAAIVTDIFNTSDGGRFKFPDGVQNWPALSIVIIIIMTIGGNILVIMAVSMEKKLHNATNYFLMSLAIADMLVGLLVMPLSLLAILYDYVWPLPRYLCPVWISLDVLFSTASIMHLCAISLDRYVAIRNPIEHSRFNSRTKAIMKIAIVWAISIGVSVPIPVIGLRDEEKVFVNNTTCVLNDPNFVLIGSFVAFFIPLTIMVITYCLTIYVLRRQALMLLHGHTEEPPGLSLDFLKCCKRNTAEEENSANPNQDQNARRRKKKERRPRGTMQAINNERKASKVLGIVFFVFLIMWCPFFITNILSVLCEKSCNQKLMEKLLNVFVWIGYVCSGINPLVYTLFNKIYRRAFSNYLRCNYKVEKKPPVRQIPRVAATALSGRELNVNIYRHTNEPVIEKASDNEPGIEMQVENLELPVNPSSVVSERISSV
# [16] = target: Sodium-dependent serotonin transporter (Homo sapiens) (UniProt P31645); assay: Inhibition of Transporter, Serotonin (5-Hydroxytryptamine) (SERT) at 10.0 µM in the Eurofins Panlabs Safety Screen; settings: Compound concentration 10.0 uM
# [17] = target: Vasopressin V1a receptor (Homo sapiens) (UniProt P37288); assay: Inhibition of Vasopressin V1A at 10.0 µM in the Eurofins Panlabs Safety Screen; settings: Compound concentration 10.0 uM
# [18] = target: 5-hydroxytryptamine receptor 7 (Homo sapiens) (UniProt P34969); settings: Compound concentration 10.0 uM
# [19] = target: D(2) dopamine receptor (Homo sapiens) (UniProt P14416); settings: Compound concentration 10.0 uM
# [20] = target: Sodium-dependent noradrenaline transporter (Homo sapiens) (UniProt P23975); settings: Compound concentration 10.0 uM
# [21] = target: Mu-type opioid receptor (Homo sapiens) (UniProt P35372); settings: Compound concentration 10.0 uM
# [22] = target: Kappa-type opioid receptor (Homo sapiens) (UniProt P41145); settings: Compound concentration 10.0 uM
# Chain of Kappa-type opioid receptor (Homo sapiens) (P41145 whole entry): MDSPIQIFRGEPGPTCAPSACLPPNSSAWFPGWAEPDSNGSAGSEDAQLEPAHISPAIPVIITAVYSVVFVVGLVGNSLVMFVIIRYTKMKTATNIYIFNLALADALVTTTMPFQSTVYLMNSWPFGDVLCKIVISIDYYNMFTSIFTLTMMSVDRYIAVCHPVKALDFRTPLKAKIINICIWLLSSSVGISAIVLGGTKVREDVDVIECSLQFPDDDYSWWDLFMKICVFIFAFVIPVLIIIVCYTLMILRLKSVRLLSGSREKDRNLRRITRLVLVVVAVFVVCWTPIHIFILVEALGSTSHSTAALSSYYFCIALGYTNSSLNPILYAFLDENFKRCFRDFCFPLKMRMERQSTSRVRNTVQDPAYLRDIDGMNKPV
# Chain of Sodium-dependent noradrenaline transporter (Homo sapiens) (P23975 whole entry): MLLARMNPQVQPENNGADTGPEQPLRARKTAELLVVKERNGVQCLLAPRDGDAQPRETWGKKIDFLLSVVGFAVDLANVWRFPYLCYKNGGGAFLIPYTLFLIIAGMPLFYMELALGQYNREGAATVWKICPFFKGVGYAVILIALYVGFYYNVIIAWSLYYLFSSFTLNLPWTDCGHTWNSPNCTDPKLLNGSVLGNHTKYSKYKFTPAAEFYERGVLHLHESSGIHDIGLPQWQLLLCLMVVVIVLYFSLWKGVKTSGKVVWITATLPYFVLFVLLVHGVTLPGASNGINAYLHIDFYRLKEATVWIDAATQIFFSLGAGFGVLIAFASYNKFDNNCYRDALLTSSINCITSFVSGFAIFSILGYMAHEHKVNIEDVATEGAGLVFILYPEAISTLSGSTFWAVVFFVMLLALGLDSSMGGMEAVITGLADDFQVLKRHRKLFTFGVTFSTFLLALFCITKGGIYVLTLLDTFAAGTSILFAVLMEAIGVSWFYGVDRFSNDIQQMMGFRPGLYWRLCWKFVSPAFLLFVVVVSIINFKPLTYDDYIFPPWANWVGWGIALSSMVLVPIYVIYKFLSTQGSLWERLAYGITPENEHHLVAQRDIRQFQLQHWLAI
# Chain of D(2) dopamine receptor (Homo sapiens) (P14416 whole entry): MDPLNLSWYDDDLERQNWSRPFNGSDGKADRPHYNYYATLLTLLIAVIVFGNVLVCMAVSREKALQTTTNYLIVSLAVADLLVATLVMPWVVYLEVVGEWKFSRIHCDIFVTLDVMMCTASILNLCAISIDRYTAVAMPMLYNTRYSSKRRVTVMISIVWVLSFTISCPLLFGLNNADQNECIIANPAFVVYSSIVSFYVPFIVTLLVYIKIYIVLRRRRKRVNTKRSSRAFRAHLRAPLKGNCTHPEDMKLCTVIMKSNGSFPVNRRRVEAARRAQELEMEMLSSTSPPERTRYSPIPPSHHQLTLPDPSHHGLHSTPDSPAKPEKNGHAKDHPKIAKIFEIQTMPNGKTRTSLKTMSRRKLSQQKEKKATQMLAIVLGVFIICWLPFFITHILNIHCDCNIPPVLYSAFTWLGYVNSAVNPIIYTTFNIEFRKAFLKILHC
# Chain of Muscarinic acetylcholine receptor M3 (P20309 whole entry): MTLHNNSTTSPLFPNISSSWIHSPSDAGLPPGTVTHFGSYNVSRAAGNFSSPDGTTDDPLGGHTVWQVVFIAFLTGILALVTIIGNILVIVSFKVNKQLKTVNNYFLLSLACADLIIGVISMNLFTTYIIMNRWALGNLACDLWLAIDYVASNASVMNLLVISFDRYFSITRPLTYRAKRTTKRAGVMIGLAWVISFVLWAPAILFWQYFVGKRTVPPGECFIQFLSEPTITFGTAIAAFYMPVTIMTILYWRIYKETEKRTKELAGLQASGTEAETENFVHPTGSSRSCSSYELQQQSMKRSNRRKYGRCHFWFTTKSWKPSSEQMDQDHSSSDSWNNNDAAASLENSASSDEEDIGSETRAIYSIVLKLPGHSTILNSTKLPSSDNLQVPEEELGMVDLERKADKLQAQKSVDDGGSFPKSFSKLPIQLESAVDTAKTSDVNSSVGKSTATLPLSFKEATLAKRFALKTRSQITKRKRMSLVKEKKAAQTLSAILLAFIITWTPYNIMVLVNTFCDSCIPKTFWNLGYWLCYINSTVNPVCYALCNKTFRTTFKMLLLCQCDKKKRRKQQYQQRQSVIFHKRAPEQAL
# Chain of 5-hydroxytryptamine receptor 7 (Homo sapiens) (P34969 whole entry): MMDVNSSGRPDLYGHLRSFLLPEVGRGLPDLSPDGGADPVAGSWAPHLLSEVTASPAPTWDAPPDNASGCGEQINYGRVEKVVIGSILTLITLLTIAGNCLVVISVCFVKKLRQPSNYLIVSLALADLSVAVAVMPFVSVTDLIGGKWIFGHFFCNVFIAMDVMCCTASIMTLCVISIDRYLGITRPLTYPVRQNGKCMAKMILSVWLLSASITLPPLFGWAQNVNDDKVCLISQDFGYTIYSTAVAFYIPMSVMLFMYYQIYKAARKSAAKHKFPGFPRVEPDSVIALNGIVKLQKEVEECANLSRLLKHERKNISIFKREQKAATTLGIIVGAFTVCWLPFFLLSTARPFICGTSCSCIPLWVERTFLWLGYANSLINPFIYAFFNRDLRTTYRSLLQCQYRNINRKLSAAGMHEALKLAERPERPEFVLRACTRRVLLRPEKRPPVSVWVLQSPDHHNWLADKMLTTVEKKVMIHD
# Chain of Mu-type opioid receptor (Homo sapiens) (P35372 whole entry): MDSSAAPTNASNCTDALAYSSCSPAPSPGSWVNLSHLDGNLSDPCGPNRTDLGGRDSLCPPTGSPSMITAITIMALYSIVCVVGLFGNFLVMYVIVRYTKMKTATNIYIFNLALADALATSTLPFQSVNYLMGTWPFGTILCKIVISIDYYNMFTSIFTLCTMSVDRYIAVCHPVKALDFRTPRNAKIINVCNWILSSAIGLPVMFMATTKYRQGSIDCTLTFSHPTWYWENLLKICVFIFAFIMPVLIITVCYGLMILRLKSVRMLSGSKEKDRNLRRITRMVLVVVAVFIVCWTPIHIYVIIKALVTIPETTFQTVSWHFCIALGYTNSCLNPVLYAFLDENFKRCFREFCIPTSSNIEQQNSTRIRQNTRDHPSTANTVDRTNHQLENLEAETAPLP
# Chain of 5-hydroxytryptamine receptor 2B (Homo sapiens) (P41595 whole entry): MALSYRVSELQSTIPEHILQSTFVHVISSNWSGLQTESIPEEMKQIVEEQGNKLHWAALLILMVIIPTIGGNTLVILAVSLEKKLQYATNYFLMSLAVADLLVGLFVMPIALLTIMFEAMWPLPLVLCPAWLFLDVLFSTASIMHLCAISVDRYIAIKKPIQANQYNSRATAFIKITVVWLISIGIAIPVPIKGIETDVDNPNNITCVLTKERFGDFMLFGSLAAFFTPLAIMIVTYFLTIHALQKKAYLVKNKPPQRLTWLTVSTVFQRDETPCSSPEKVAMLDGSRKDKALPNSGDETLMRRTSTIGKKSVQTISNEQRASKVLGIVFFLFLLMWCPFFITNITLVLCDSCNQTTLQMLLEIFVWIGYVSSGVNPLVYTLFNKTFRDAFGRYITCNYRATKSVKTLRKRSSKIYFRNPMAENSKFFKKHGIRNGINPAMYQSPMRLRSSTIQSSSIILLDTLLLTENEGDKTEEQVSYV
# Chain of Serine/threonine-protein kinase haspin (Homo sapiens) (Q8TF76 whole entry): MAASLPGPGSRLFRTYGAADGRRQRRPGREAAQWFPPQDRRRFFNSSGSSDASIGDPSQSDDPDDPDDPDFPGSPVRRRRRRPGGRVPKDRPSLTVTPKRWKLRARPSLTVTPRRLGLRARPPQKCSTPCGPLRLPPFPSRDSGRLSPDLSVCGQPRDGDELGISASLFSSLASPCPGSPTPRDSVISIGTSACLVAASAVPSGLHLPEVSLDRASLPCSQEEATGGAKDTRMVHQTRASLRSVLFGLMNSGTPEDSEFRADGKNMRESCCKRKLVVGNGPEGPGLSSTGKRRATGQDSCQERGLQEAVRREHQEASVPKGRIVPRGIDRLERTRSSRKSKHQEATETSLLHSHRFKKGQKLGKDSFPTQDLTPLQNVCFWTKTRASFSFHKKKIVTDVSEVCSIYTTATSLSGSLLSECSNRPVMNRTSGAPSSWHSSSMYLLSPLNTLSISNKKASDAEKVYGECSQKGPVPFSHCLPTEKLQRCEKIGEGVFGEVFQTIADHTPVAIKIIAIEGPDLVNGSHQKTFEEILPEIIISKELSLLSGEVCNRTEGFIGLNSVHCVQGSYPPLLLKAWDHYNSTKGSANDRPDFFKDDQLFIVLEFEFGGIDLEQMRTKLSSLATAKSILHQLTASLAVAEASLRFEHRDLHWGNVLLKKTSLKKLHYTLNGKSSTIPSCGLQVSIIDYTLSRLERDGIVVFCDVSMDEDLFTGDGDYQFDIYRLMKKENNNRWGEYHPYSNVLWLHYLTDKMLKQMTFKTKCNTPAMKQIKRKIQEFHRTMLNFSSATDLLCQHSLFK
# Chain of Sodium-dependent serotonin transporter (Homo sapiens) (P31645 whole entry, looked up): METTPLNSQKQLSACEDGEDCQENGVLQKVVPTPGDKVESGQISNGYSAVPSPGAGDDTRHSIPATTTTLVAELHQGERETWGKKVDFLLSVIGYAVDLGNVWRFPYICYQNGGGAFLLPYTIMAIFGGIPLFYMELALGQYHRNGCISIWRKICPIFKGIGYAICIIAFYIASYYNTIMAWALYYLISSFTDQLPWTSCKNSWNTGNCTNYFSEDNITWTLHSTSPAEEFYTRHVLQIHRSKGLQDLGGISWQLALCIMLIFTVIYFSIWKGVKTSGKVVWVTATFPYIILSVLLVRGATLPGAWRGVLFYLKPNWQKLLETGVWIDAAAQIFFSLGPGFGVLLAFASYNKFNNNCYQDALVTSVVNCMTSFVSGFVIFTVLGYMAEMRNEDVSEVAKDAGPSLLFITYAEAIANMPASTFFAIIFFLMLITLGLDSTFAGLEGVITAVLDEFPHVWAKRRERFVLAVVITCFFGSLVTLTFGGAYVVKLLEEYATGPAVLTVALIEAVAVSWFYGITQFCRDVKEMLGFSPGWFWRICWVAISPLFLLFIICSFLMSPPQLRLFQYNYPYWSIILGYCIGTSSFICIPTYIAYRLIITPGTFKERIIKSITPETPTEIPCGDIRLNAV
Structure (SMILES),pKi [1],Ki [1],inhibition [2],inhibition [3],inhibition [4],inhibition [5],inhibition [6],inhibition [7],inhibition [8],inhibition [9],inhibition [10],inhibition [11],inhibition [12],inhibition [13],inhibition [14],inhibition [15],inhibition [16],inhibition [17],inhibition [18],inhibition [19],further results
O=C1CCC(N2Cc3cc(C4CCN(C(=O)CCCCCN5CCC(c6ccc(Oc7nn8cnnc8c8c7CCCC8)cc6)CC5)CC4)ccc3C2=O)C(=O)N1 (stereo unspecified),5.65,2090 nM,28.6%,25%,15.4%,0%,32%,-4%,-4%,16%,10%,15%,32%,53%,41%,14%,32%,-8%,36.8%,20.9%,inhibition [20]: 11.7%; inhibition [21]: 16.3%; inhibition [22]: 27.6%
O=C1NCCCC1N1Cc2cc(C3CCN(C(=O)CCCCCN4CCC(c5ccc(Oc6nn7cnnc7c7c6CCCC7)cc5)CC4)CC3)ccc2C1=O (stereo unspecified),5.72,1860 nM,26%,20.4%,10.6%,-3%,21%,13%,2%,20%,15%,22%,36%,47%,10%,2%,22%,-3%,32.5%,21.7%,inhibition [20]: 4.02%; inhibition [21]: 13.8%; inhibition [22]: 29.3%
